According to patent US20230321123A1, “INHIBITORS OF PSEUDOMONAS AERUGINOSA VIRULENCE FACTOR LasB” (Helmholtz-Zentrum Für Infektionsforschung GmbH, priority 2020, published 2023):
Like-named read-outs stand apart in the source and are kept apart here.

Assays:
LasB = LasB (Pseudomonas aeruginosa, UniProt Q02RJ6); experiment: biochemical; parameters: species or system P. aeruginosa
MMP-1 = target: T1, MMP-1 (Homo sapiens, UniProt P03956); experiment: Selectivity against human off-targets: MMP-1; type: biochemical; conditions: at 100 μM; read-out: Inhibition [%] MMP-1
T1 sequence (P03956 100-469): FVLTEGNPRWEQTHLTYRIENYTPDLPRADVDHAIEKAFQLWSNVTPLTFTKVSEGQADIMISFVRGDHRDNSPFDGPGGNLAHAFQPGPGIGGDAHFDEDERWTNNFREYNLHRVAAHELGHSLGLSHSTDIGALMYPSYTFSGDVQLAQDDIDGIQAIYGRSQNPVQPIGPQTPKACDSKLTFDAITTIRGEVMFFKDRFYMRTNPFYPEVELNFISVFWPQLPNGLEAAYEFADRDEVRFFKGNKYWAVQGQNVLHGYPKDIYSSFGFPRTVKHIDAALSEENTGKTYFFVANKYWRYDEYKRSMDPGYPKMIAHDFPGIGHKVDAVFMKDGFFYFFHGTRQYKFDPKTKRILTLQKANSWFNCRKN
Source text: (§1) The inhibition of zinc-containing human enzymes is described frequently for LasB inhibitors and poses a serious difficulty in the development of selective compounds. Particularly, the inhibition of matrix metalloproteases (MMPs) should be avoided. To further investigate this issue, three derivatives (the compounds of examples 1, 5 and 8) have been tested for their selectivity against several human off-targets, including six MMPs, ADAM17 (TACE), HDAC-3 and HDAC-8 (Table 4). The selectivity of the compounds is particularly high for MMPs and HDACs, whereas the inhibition of ADAM17 was considerably stronger.

MMP-2 = target: T2, MMP-2 (Homo sapiens, UniProt P08253); experiment: Selectivity against human off-targets: MMP-2; type: biochemical; conditions: at 100 μM; read-out: Inhibition [%] MMP-2
T2 sequence (P08253 110-660): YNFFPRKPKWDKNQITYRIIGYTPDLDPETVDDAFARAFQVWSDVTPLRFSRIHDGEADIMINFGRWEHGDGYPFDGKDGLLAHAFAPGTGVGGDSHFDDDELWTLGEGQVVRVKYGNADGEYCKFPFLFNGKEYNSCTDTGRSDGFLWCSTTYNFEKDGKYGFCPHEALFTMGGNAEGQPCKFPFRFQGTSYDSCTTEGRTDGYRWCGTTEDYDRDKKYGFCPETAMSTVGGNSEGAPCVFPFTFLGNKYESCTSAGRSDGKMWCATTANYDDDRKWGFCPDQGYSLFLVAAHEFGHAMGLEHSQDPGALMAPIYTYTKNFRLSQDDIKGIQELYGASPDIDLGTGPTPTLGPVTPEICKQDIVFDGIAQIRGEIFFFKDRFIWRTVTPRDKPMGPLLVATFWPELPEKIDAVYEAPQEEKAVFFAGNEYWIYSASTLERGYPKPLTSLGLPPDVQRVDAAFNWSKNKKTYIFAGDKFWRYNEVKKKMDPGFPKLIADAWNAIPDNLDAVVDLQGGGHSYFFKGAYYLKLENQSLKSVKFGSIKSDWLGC
Source text: as §1

MMP-3 = MMP-3 (Homo sapiens, UniProt P08254); experiment: Selectivity against human off-targets: MMP-3; type: biochemical; conditions: at 100 μM; read-out: Inhibition [%] MMP-3
Source text: as §1

ADAM17 (TACE) = ADAM17 (TACE) (Homo sapiens, UniProt P78536); experiment: Selectivity against human off-targets: ADAM17 (TACE); type: biochemical; conditions: for IC50: read-out: IC50 ADAM17 (TACE)
Cytotoxicity HepG2 = type: cell-based; conditions: human
Protocol: (§2) The compounds of examples 1 and 5 were not toxic against the cell lines HepG2, HEK293 and A549 (Table 5). Additionally, the inhibitory effect against P. aeruginosa PA14 was evaluated to exclude an antibacterial effect of the compounds of the present invention. This is important as it was the aim to target virulence and not viability of the bacteria. […]

Cytotoxicity HEK293 = type: cell-based; conditions: human
Protocol: as §2

Cytotoxicity A549 = type: cell-based; conditions: human
Protocol: as §2

P. aeruginosa PA14 = experiment: PA14 inhibition (MIC, antibacterial effect); type: cell-based; conditions: Pseudomonas aeruginosa, PA14; read-out: MIC PA14
Protocol: as §2

HDAC-3 = HDAC-3 (Homo sapiens, UniProt O15379); experiment: Selectivity against human off-targets: HDAC-3; type: biochemical; conditions: read-out: IC50 HDAC-3
Source text: as §1

HDAC-8 = target: T3, HDAC-8 (Homo sapiens, UniProt Q9BY41); experiment: Selectivity against human off-targets: HDAC-8; type: biochemical; conditions: read-out: IC50 HDAC-8
T3 sequence (Q9BY41 1-377): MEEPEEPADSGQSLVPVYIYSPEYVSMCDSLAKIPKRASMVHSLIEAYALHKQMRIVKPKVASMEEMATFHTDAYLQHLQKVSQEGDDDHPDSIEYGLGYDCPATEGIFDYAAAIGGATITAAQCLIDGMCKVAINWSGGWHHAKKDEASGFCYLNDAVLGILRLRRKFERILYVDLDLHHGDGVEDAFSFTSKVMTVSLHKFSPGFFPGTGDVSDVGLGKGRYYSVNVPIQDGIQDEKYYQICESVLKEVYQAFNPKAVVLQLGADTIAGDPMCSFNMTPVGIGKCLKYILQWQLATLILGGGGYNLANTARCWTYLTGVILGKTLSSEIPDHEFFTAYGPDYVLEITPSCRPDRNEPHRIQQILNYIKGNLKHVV
Source text: as §1

MMP-8 = MMP-8 (Homo sapiens, UniProt P22894); experiment: Selectivity against human off-targets: MMP-8; type: biochemical; conditions: at 100 μM; read-out: Inhibition [%] MMP-8
Source text: as §1

Sequence of MMP-3 (P08254 100-477): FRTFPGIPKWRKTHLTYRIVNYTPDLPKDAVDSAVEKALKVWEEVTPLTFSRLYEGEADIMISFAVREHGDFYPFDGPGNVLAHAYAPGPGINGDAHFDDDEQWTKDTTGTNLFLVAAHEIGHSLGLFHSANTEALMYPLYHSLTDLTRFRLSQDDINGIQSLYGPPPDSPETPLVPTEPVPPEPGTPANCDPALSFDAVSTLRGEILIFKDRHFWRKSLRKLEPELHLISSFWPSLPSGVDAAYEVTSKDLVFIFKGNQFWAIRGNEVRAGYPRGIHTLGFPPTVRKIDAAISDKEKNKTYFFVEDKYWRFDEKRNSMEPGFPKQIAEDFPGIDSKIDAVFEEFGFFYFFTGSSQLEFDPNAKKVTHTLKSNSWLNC
Sequence of LasB (Q02RJ6 198-498): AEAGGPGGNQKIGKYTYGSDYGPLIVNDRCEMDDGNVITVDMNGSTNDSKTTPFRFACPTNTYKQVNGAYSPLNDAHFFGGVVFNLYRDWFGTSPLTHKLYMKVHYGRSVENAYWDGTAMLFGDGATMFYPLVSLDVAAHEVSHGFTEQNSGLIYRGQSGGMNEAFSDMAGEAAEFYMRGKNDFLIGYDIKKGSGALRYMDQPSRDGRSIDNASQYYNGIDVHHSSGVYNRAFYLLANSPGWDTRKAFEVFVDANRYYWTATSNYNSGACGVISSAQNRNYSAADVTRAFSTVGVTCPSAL
Sequence of ADAM17 (TACE) (P78536 215-824): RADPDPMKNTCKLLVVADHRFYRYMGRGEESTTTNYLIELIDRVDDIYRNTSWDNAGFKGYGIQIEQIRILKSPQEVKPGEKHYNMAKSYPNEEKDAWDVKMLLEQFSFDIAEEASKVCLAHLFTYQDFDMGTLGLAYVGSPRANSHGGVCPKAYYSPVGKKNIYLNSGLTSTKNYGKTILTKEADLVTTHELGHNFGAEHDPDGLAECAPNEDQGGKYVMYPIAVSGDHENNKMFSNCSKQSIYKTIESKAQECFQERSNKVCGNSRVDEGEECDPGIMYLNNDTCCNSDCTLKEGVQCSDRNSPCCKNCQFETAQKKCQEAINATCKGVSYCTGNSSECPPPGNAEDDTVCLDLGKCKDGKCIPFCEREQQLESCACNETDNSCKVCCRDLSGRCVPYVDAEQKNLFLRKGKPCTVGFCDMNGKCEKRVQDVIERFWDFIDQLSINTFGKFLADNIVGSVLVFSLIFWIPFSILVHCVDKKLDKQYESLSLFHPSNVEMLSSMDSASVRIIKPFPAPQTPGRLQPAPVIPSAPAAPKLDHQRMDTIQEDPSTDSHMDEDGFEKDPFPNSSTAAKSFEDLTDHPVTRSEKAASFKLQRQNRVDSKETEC
Sequence of HDAC-3 (O15379 whole entry): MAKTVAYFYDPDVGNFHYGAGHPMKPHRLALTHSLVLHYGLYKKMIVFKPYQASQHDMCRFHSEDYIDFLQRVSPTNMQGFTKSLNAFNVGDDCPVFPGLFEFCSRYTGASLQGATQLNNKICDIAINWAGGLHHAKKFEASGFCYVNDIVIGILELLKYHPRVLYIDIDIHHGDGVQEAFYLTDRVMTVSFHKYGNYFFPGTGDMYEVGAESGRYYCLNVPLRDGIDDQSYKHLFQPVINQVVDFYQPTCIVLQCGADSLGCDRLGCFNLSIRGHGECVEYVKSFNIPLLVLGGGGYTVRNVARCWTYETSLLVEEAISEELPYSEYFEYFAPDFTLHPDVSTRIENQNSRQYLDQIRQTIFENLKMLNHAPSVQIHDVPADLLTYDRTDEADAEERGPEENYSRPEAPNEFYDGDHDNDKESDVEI
Sequence of HDAC-3 (Q9Y618 395-489 partner limits assumed): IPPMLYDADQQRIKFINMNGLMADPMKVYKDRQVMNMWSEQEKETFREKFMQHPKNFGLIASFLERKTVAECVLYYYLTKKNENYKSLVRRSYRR
Sequence of MMP-8 (P22894 101-467): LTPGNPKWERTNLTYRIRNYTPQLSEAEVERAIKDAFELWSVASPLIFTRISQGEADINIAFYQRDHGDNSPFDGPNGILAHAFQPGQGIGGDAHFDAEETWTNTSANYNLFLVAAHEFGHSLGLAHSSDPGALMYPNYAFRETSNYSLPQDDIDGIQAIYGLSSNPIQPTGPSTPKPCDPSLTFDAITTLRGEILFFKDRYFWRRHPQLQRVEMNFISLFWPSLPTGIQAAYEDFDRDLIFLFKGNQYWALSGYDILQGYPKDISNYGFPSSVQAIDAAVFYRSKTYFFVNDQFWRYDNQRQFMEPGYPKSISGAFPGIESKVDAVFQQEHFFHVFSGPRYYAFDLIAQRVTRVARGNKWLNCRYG

Structure (SMILES)	inhibition at 100 µM (MMP-1)	IC50 (Cytotoxicity HepG2; HepG2)	IC50 (Cytotoxicity HEK293; HEK293)	IC50 (Cytotoxicity A549; A549)	MIC (P. aeruginosa PA14)	IC50 (LasB; IC50 against LasB)	IC50 (ADAM17 (TACE))	further results
CC(C)CC(C(=O)N[C@H](c1nc2cc(Oc3ccccc3)ccc2[nH]1)C(C)C)P(=O)(O)O (mixture of isomers) [Example 172, (4-Methyl-1-(((S)-2-methyl-1-(5-phenoxy-1H-benzo[d]imidazol-2-yl)propyl)amino)-1-oxopentan-2-yl)phosphonic acid]	18 ± 4%	> 100 µM	> 100 µM	> 100 µM	> 100 µM	–	–	IC50 (LasB; IC50 against LasB (Table 16), heteropentacycles and benzannulated heteropentacycles): 12 ± 1 µM; inhibition at 100 µM (MMP-2): 12 ± 2%; inhibition at 100 µM (MMP-3): 18 ± 5%; inhibition at 100 µM (ADAM17 (TACE); at 100 μM): < 10%
Cc1ccc(NC(=O)C(CC(C)C)n2nccn2)cc1 (stereo not shown) [Example 177, 4-Methyl-N-(p-tolyl)-2-(2H-1,2,3-triazol-2-yl)pentanamide]	7 ± 4%	> 100 µM	> 100 µM	> 100 µM	> 100 µM	5.3 ± 0.2 µM	> 100 µM	IC50 (HDAC-3): > 100 µM; IC50 (HDAC-8): > 100 µM
CC(C)CC(C(=O)Nc1ccc(NS(=O)(=O)c2ccc(Cl)c(Cl)c2)cc1)P(=O)(O)O (stereo not shown) [Example 108, (1-((4-((3,4-Dichlorophenyl)sulfonamido)phenyl)amino)-4-methyl-1-oxopentan-2-yl)phosphonic acid]	12 ± 1%	–	–	–	> 100 µM	–	–	inhibition at 100 µM (MMP-2): < 10%; inhibition at 100 µM (MMP-3): < 10%; IC50 (Cytotoxicity HepG2; HepG2 cells): > 100 µM; IC50 (Cytotoxicity HEK293; HEK293 cells): > 100 µM; IC50 (Cytotoxicity A549; A549 cells): > 100 µM
Cc1ccc(NC(=O)C(S)Cc2ccccc2)cc1 (stereo not shown) [Example 8]	–	–	–	–	–	–	4.8 ± 1.2 µM	IC50 (LasB; read-out: IC50 against LasB): 0.48 ± 0.04 µM
CC(C)CC(C(=O)N[C@H](C(=O)Nc1ccc(Cl)c(Cl)c1)C(C)C)P(=O)(O)O (mixture of isomers) [Example 152, (1-(((S)-1-((3,4-Dichlorophenyl)amino)-3-methyl-1-oxobutan-2-yl)amino)-4-methyl-1-oxopentan-2-yl)phosphonic acid]	13 ± 1%	> 100 µM	> 100 µM	> 100 µM	> 100 µM	0.0051 ± 0.0002 µM	> 100 µM	inhibition at 100 µM (MMP-2): 7 ± 9%; inhibition at 100 µM (MMP-3): < 10%
Cc1ccc(NC(=O)C(CC(C)C)C(=O)NO)cc1 (stereo not shown) [Example 173, N^1-hydroxy-2-isobutyl-N^3-(p-tolyl)malonamide]	29 ± 3%	> 100 µM	> 100 µM	> 100 µM	> 100 µM	0.014 ± 0.001 µM	16 ± 2 µM	inhibition at 100 µM (MMP-2): 26 ± 2%; inhibition at 100 µM (MMP-3): 16 ± 7%; IC50 (HDAC-3): > 100 µM; IC50 (HDAC-8): > 100 µM
O=C(Nc1ccc(O)cc1)C(S)Cc1ccccc1 (stereo not shown) [Example 5]	–	> 100 µM	> 100 µM	> 100 µM	–	0.59 ± 0.04 µM	2.3 ± 1.4 µM	inhibition at 100 µM (MMP-8): 19 ± 4%
CCC(S)C(=O)Nc1ccc(Cl)c(Cl)c1 (stereo not shown) [Example 18]	–	–	–	–	–	2.4 ± 0.4 µM	–	–
CC(C)CC(C(=O)Nc1ccc(NC(=O)c2nc(Cl)cs2)cc1)P(=O)(O)O (stereo not shown) [Example 129]	–	–	–	–	–	0.049 ± 0.002 µM	–	–
CC(C)CC(C(=O)Nc1ccc(Br)nn1)P(=O)(O)O (stereo not shown) [Example 89]	–	–	–	–	–	7.91 ± 0.39 µM	–	–
CC(C)CC(C(=O)Nc1ccc(Cl)nn1)P(=O)(O)O (stereo not shown) [Example 88]	–	–	–	–	–	18.8 ± 0.74 µM	–	–
Cc1cccc(NC(=O)C(S)Cc2ccccc2)c1 (stereo not shown) [Example 7]	–	–	–	–	–	0.98 ± 0.43 µM	–	–
CC[C@H](C)[C@H](NC(=O)C(CC(C)C)P(=O)(O)O)C(=O)Nc1ccc(Cl)c(Cl)c1 (stereo partly shown) [Example 154]	–	–	–	–	–	0.013 ± 0.001 µM	–	–
Cc1ccc(NC(=O)C(CC2CCCCC2)P(=O)(O)O)cc1 (stereo not shown) [Example 80]	–	–	–	–	–	2.03 ± 0.11 µM	–	–
CC(C)CC(C(=O)N[C@H](C(=O)Nc1ccc(Cl)c(Cl)c1)c1ccccc1)P(=O)(O)O (stereo partly shown) [Example 165]	–	–	–	–	–	0.1 ± 0.003 µM	–	–
